Values after ≈ are worked out from the molar mass of the structure shown. Where two headings read alike, the source gives them in different places. Positions of bridges follow the written chain, without caps; N, C: chain ends. Non-standard residues stand in square brackets, D forms with d. Residues, ends and D or L forms follow the SMILES beside them. R8 = C=CCCCCCC[C@@](C)(N)C(=O)O; S5 = C=CCCC[C@](C)(N)C(=O)O
What was measured:
[1] = Lactate dehydrogenase (LDH) release assay; type: cell-based
Outline: (§1)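 Membrane damage measured as lactate dehydrogenase release (CytoTox-ONE kit) from p53-responsive β-lactamase reporter HCT116 cells plated at 8000 per well. Final DMSO 0.5%; geometric mean reported from a minimum of three biological replicates.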

HCT116 cells = test: Lactate dehydrogenase (LDH) release assay; type: cell-based
Outline: as §1

[2] = Solubility assay (kinetic solubility, PBS pH 7); type: physicochemical; settings: for solubility kinetic: pH 7, aqueous buffer, kinetic from dmso stock, read-out: Solubility
Outline: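 Reference standards were made by diluting the 10 mM stock to 100 µM in acetonitrile:methanol:DMSO 10:80:10. Solubility in µM was calculated as the sample peak area divided by the standard peak area, multiplied by the standard concentration.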

[3] = test system: Jump-In T-REx CHO-K1 BLA cells; test: cells; type: cell-based
[4] = Nanoclick permeability assay
Outline: (§2)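 Azido-peptide permeability was read as loss of NanoBRET signal (donor 450 nm, acceptor 610 nm) after adding NanoBret618-azide at 10 μM final.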

[5] = test system: cells transiently transfected with the NanoLuc-HaloTag vector; test: Nanoclick permeability assay; settings: 4Hr
Outline: as §2

[6] = Circular dichroism (CD) helicity; type: physicochemical
Description: A total of 5 µL of the 10 mM stock peptide was mixed with 45 µL of 100% methanol, and dried for 2 h in the SpeedVac concentrator (Thermo Scientific). The dried peptide was reconstituted in a buffer (1 mM Hepes pH 7.4 and 5% methanol) to a concentration of 1 mM. The peptide sample was placed in a quartz cuvette with a path length of 0.2 cm. The peptide concentration was determined by the absorbance of the peptide at […]. The CD spectrum was recorded from 300 to 190 nm using the Chirascan-plus qCD machine (Applied Photophysics, Surrey, UK), at 25 °C. All experiments were done in duplicates. The CD spectrum was converted to mean residue ellipticity before deconvolution and estimation of the secondary structure components of the peptide using the CDNN software (distributed by Applied Photophysics). Measurements were taken at least twice and were reported as arithmetic means.

[7] = Experimental LogD (partition coefficient); settings: for logD: not stated, Partition Coeff LogD
[8] = test system: p53 responsive β-lactamase reporter in HCT116 cells; test: cells; type: cell-based
Outline: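 HCT116 cells stably carrying a p53-responsive β-lactamase reporter, seeded at 8000 cells/well, with 0.5% DMSO final. Reporter activity read by ToxBLAzer Dual Screen. Values are geometric means of at least three biological replicates.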

human Mdm2 1–125 = target: T1, human Mdm2 1–125 (Homo sapiens, UniProt Q00987); test: Mdm2 binding by competitive fluorescence anisotropy assay (FP binding); settings: read-out: FP binding assay KD
T1 construct: GST (N); His6 (internal); TEV cleavage site (ENLYFQG) (internal); made in house; host or cells: BL21 (DE3) Rosetta T1R Escherichia coli

Ca Ski cell line = settings: read-out: Cell Proliferation assay EC50; p53 Mut, Ca-Ski
Outline: (§3)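 Compound dilution series (10 points, 3-fold, 10 mM top stock in DMSO) tested on overnight-plated Ca Ski cells in RPMI1640/10% FBS and on blasticidin-selected p53RE-bla HCT-116 cells in McCoy's 5A; read-out was CellTiter-Glo 2.0 luminescence after room-temperature equilibration.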

[9] = test system: CellSensor p53RE-bla HCT-116 Cell Line; settings: read-out: Cell Proliferation assay EC50; p53 WT, HCT116
Outline: as §3

[10] = 0% FBS 4Hr, read-out: TETCHO: Counterscreen EC50
[11] = 0% FBS 4Hr, read-out: p53 reporter assay: EC50

T1 sequence (Q00987 with tags, fused parts or gaps): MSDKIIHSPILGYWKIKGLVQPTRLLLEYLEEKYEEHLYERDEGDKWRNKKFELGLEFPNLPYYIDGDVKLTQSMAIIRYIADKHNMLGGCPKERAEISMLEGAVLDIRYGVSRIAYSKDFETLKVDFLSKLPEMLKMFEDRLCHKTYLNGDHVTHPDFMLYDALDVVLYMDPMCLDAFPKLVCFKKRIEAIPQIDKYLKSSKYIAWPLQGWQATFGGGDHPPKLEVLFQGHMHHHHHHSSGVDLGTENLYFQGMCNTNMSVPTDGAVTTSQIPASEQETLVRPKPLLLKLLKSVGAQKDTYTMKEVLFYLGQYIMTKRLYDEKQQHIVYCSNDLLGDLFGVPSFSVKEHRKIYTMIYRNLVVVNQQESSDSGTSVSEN

**Q.** What does the source list for `CC(=O)N[C@@H](CC(C)C)C(=O)N[C@H](C(=O)N[C@@H](Cc1ccccc1)C(=O)N[C@]1(C)CCCCCCC=CCCC[C@@](C)(C(=O)N[C@@H](C)C(=O)N[C@@H](C)C(=O)N[C@@H](C)C(=O)N[C@@H](C)C(=O)N[C@@H](C)C(=O)N[C@H](C)C(N)=O)NC(=O)[C@H](CC(C)C)NC(=O)[C@H](CCC(N)=O)NC(=O)[C@H](C)NC(=O)[C@H](Cc2c[nH]c3ccccc23)NC(=O)[C@H](Cc2ccc(O)cc2)NC(=O)[C@H](CCC(=O)O)NC1=O)[C@@H](C)O` [ALRN-6924, Ac-LTF(R8)EYWAQL(S5)AAAAA(dA)-NH2, reference compound] (Ac-LTF[R8]EYWAQL[S5]AAAAA[dA]-NH2; staple 4-11)?
**A.** EC50 ([1]; 0% FBS 4Hr, read-out: LDH: Cytotoxicity assay EC50): > 50.7 µM; EC50 ([1]; 10% FBS 16Hr, read-out: LDH: Cytotoxicity assay EC50): > 50.7 µM; LDH: Cytotoxicity assay % Effect (HCT116 cells; 0% FBS 4Hr): 0.8526%; LDH: Cytotoxicity assay % Effect (HCT116 cells; 10% FBS 16Hr): 8.856%; Solubility [2]: P.B.; Solubility ([2]; pH 7, PBS): Poorly Behaved; TETCHO: Counterscreen % Effect ([3]; 0% FBS 4Hr): 4.454%; EC50 [3, 10]: > 50.4 µM; TETCHO: Counterscreen % Effect ([3]; 10% FBS 16Hr): -11.62%; EC50 ([3]; 10% FBS 16Hr, read-out: TETCHO: Counterscreen EC50): > 50.4 µM; cell entry EC50 [4]: > 10 µM; Nanoclick permeability assay % Effect [5]: 33.65%; CD % Helicity [6]: 51.25%; Aqueous solution helicity ([6]; circular dichroism): 51.25%; Partition Coeff LogD [7]: Poorly Behaved; p53 reporter assay % Effect ([8]; 0% FBS 4Hr): 95.6%; EC50 ([8]; 0% FBS 4Hr, read-out: p53 reporter assay EC50): 0.141 µM; p53 reporter assay % Effect ([8]; 10% FBS 16Hr): 77.82%; EC50 ([8]; 10% FBS 16Hr, read-out: p53 reporter assay EC50): 0.323 µM; EC50 ([8]; read-out: Cell EC50 (4 hr, 0% FBS), p53 reporter assay, 4 hr, 0% FBS): 0.14 µM; EC50 ([8]; read-out: Cell EC50 (16 hr, 10% FBS), p53 reporter assay, 16 hr, 10% FBS): 0.32 µM

**Q.** What does the source list for `CC(=O)N[C@H](C(=O)N[C@@H](CO)C(=O)NC(C)(Cc1ccccc1)C(=O)N[C@]1(C)CCCCCCC=CCCC[C@@](C)(C(N)=O)NC(=O)[C@H](CC(C)C)NC(=O)[C@H](CC(C)C)NC(=O)[C@H](C)NC(=O)[C@H](Cc2c[nH]c3ccccc23)NC(=O)[C@H](Cc2ccc(O)cc2)NC(=O)[C@H](CCC(=O)O)NC1=O)[C@@H](C)O` (some centres unmarked) [MP-159]?
**A.** Kd (human Mdm2 1–125): 0.52 µM; EC50 ([1]; LDH: Cytotoxicity assay: EC50): 21.6 µM; LDH: Cytotoxicity assay: % Effect (HCT116 cells): 47.15%; solubility kinetic ([2]; pH 7, PBS): 85.5 µM (≈ 126 µg/mL); TETCHO: Counterscreen % Effect ([3]; 0% FBS 4Hr): 165.5%; EC50 [3, 10]: 30.1 µM; TETCHO: Counterscreen % Effect ([3]; 0% FBS 16Hr): 55.93%; CD % Helicity [6]: 40.4%; logD [7]: 2.75; EC50 [8, 11]: 37.4 µM; EPSA (physchem): 210 A^2

**Q.** For `CC(=O)N[C@@H](CCCCN=[N+]=[N-])C(=O)NCCC(=O)N[C@@H](CC(C)C)C(=O)N[C@H](C(=O)N[C@@H](Cc1ccccc1)C(=O)N[C@]1(C)CCCCCCC=CCCC[C@@](C)(C(=O)N[C@@H](CO)C(=O)N[C@@H](C)C(=O)N[C@@H](C)C(N)=O)NC(=O)[C@H](CC2CCC2)NC(=O)[C@H](CCC(N)=O)NC(=O)[C@H](Cc2c[nH]cn2)NC(=O)[C@H](Cc2c[nH]c3ccccc23)NC(=O)[C@H](Cc2ccc(O)cc2)NC(=O)[C@H](CCC(=O)O)NC1=O)[C@@H](C)O` [MP-496, AZIDE-ATSP-7041 (A8H)], which EC50 ([1]; 0% FBS 4Hr, read-out: LDH: Cytotoxicity assay: EC50) is on record?
**A.** > 50.6 µM

**Q.** What about the “LDH: Cytotoxicity assay: % Effect” value (HCT116 cells; 0% FBS 4Hr) of the same compound?
**A.** 33.4%

**Q.** And the solubility kinetic ([2]; pH 7, PBS)?
**A.** 20 µM (≈ 40.7 µg/mL)

**Q.** What about the “TETCHO: Counterscreen % Effect” value ([3]; 0% FBS 4Hr) of the same compound?
**A.** 34.53%

**Q.** What about the EC50 [3, 10] of the same compound?
**A.** 2.83 µM

**Q.** What about the “TETCHO Counterscreen % Effect” value ([3]; 4 hours, 0% serum, efficacy at 50 μM relative to tetracycline control) of the same compound?
**A.** 34.53%

**Q.** What about the EC50 ([3]; 4 hours, 0% serum, read-out: TETCHO Counterscreen EC50) of the same compound?
**A.** 2.8 µM

**Q.** And the “off-target effects (LDH release and/or counterscreen activity)” value ([3]; Supplementary Table 1, 0% serum, 4 hours)?
**A.** none

**Q.** What about the “CD % Helicity” value [6] of the same compound?
**A.** 32.75%

**Q.** And the logD [7]?
**A.** 2.63

**Q.** What about the EC50 (Ca Ski cell line) of the same compound?
**A.** > 49.8 µM

**Q.** What about the EC50 [9] of the same compound?
**A.** 1.54 µM

**Q.** And the EC50 [8, 11]?
**A.** 1.61 µM

**Q.** And the EC50 ([8]; 0% FBS 16Hr, read-out: p53 reporter assay: EC50)?
**A.** 1.67 µM

**Q.** What about the EPSA (physchem) of the same compound?
**A.** 214 A^2
